SMILES strings stand for the structures.

The nature of assay [1]: Inhibition of Trypanosoma brucei recombinant MBP-fused GSK-3 short isoform expressed in Escherichia coli by scintillation proximity assay.
The subject of a further assay is Trypanosoma brucei. The experiment in a line: microbe, parasite or virus in culture. Particulars: Trypanosoma brucei, 427, 48 h. Format: functional, organism-based.

Description for Trypanosoma brucei: Antitrypanosomal activity against blood stream form of Trypanosoma brucei 427 assessed as growth inhibition after 48 hrs by alamar blue assay

On to `Nc1nc(Nc2cccc(S(N)(=O)=O)c2)nn1C(=S)Nc1c(F)cccc1F`, for which the IC50 in assay [1] was found to be 13 nM. The compound also came in with an EC50 with Trypanosoma brucei of 20 nM.

Turning to `CC(=O)N1CCC(C(=O)Nc2nccc(/C(C#N)=C3\NC(C(C)(C)C)=CS3)n2)CC1`, in assay [1], the IC50 came to 22 nM. Moreover, the EC50 with Trypanosoma brucei was 410 nM.

As for `O=C1NC(=O)C(c2ccccc2[N+](=O)[O-])=C1Nc1ccc(O)c(Cl)c1`, the IC50 in assay [1] was determined as 1000 nM. This compound came in with an EC50 in the assay with Trypanosoma brucei of 740 nM.

Consider `CC(C)(C)C1=CS/C(=C(\C#N)c2ccnc(NCCCCN3C(=O)CCC3=O)n2)N1`, for which the IC50 in assay [1] was found to be 168 nM. In the assay on Trypanosoma brucei, this compound returned an EC50 of 705 nM.

Regarding `N#CCCc1ccc2c(c1)-c1[nH]c3ccc([N+](=O)[O-])cc3c1CC(=O)N2` [ALSTERPAULLONE 2], the half-maximal inhibitory concentration (IC50) in assay [1] turned out to be 336 nM. In the assay with Trypanosoma brucei, the EC50 was determined as 150 nM.

For `O=C1Nc2ccc3ncsc3c2/C1=C/Nc1ccc(S(=O)(=O)Nc2ccccn2)cc1`, in assay [1], the IC50 amounted to 1 nM. The compound further had an EC50 with Trypanosoma brucei of 119 nM.

Consider `CN(C)CC(=O)N1CCC(C(=O)Nc2nccc(/C(C#N)=C3\NC(C(C)(C)C)=CS3)n2)CC1`, for which, in assay [1], the 50% inhibitory concentration (IC50) was 30 nM. In the assay with Trypanosoma brucei, this compound showed an EC50 of 458 nM.

Consider `CN1CCC(C(=O)Nc2nccc(/C(C#N)=C3\NC(C(C)(C)C)=CS3)n2)CC1`, for which, in assay [1], the IC50 stood at 30 nM. In the assay with Trypanosoma brucei, this compound yielded an EC50 of 65 nM.

Regarding `CC(C)(C)C1=CS/C(=C(\C#N)c2ccnc(NC(=O)C3CCNCC3)n2)N1`, the IC50 in assay [1] is 46 nM. Moreover, a half-maximal response with Trypanosoma brucei (EC50) required 200 nM.

In the case of `CN(C)CCCC(=O)Nc1nccc(/C(C#N)=C2\NC(C(C)(C)C)=CS2)n1`, in assay [1], the 50% inhibitory concentration (IC50) came to 4 nM. Besides, it took 50 nM to reach a half-maximal effect in the assay on Trypanosoma brucei (EC50).

As to `COc1ccc2c(c1)/C(=C/c1cnc[nH]1)C(=O)N2` [SU-9516], the IC50 in assay [1] is 352 nM. In the assay on Trypanosoma brucei, this compound showed an EC50 of 180 nM.
